ChEMBL document CHEMBL1201862, “PubChem BioAssay data set” (2004)
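96-well plates; 48 h exposure; 5 concentrations. Endpoints by linear interpolation between flanking doses. Not reached: highest tested concentration assigned. At the GI50, growth is halved.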 Activity calls are given as the source filed them. Rule as the data show it: active = GI50 up to about 1.1 µM and inactive = higher.

What was measured:
Assay in all cases: NCI-60 cell line screen, 48 h
Malme-3M = test system: Malme-3M
MDA-MB-231 = test system: MDA-MB-231
RXF 393 = test system: RXF 393
SK-MEL-28 = test system: SK-MEL-28
NCI-H226 = test system: NCI-H226
NCI-H522 = test system: NCI-H522
DU-145 = test system: DU-145
UACC-257 = test system: UACC-257
HCT-116 = test system: HCT-116
A549 = test system: A549
UO-31 = test system: UO-31
EKVX = test system: EKVX
HOP-92 = test system: HOP-92
OVCAR-5 = test system: OVCAR-5
OVCAR-4 = test system: OVCAR-4
MOLT-4 = test system: MOLT-4
HCC 2998 = test system: HCC 2998
SF-295 = test system: SF-295
RPMI-8226 = test system: RPMI-8226
MDA-MB-435 = test system: MDA-MB-435

Row | Structure (SMILES) | GI50 (Malme-3M) | GI50 (MDA-MB-231) | GI50 (RXF 393) | GI50 (SK-MEL-28) | GI50 (NCI-H226) | GI50 (NCI-H522) | GI50 (DU-145) | GI50 (UACC-257) | GI50 (HCT-116) | GI50 (A549) | GI50 (UO-31) | GI50 (EKVX) | GI50 (HOP-92) | GI50 (OVCAR-5) | GI50 (OVCAR-4) | GI50 (MOLT-4) | GI50 (HCC 2998) | GI50 (SF-295) | GI50 (RPMI-8226) | GI50 (MDA-MB-435)
1 | O=C1OC2(c3ccc(O)cc3Oc3cc(O)ccc32)c2c1c(-c1ccccc1)c(-c1ccccc1)c(-c1ccccc1)c2-c1ccccc1 | 23.5 µM (inactive) | 18.7 µM (inactive) | 23.7 µM (inactive) | 20.8 µM (inactive) | 46.3 µM (inactive) | 18.2 µM (inactive) | 17.2 µM (inactive) | 27.7 µM (inactive) | 24.4 µM (inactive) | 34.5 µM (inactive) | 25.7 µM (inactive) | 25.8 µM (inactive) | 20 µM (inactive) | 20.4 µM (inactive) | 27.8 µM (inactive) | 23.9 µM (inactive) | 16.4 µM (inactive) | 21.6 µM (inactive) | 27.7 µM (inactive) | 17.2 µM (inactive)
2 | O=C(CSc1nc2ccc([N+](=O)[O-])cc2s1)c1ccc2ccccc2c1 | > 100 µM (inactive) | > 100 µM (inactive) | > 100 µM (inactive) | > 100 µM (inactive) | > 100 µM (inactive) | > 100 µM (inactive) | > 100 µM (inactive) | > 100 µM (inactive) | > 100 µM (inactive) | > 100 µM (inactive) | > 100 µM (inactive) | > 100 µM (inactive) | 57.7 µM (inactive) | > 100 µM (inactive) | 41.2 µM (inactive) | 74.6 µM (inactive) | > 100 µM (inactive) | 93.1 µM (inactive) | > 100 µM (inactive) | > 100 µM (inactive)
3 | CC(C)(C)N(Cc1ccc2c(c1)OCO2)C(=O)/C=C\[S+]([O-])c1ccccc1 (stereo not given) | 1.91 µM (inactive) | 2.95 µM (inactive) | 1.91 µM (inactive) | 7.89 µM (inactive) | 2.74 µM (inactive) | 0.516 µM (active) | 2.73 µM (inactive) | 3.48 µM (inactive) | 2.74 µM (inactive) | 4.6 µM (inactive) | 2.19 µM (inactive) | 7.29 µM (inactive) | 2.29 µM (inactive) | 10.7 µM (inactive) | 3.1 µM (inactive) | 2.3 µM (inactive) | 4.45 µM (inactive) | 9.79 µM (inactive) | 1.67 µM (inactive) | 2.12 µM (inactive)
4 | COc1cc(/C=C2\CCC(C)C3=C(c4cc(OC)c(OC)c(OC)c4)C(C#N)=C(N)OC32)cc(OC)c1OC (stereo not given) | 2.59 µM (inactive) | 2.45 µM (inactive) | 1.65 µM (inactive) | 2.85 µM (inactive) | 2.98 µM (inactive) | 2.42 µM (inactive) | 5.09 µM (inactive) | 4.32 µM (inactive) | 2.2 µM (inactive) | 3.46 µM (inactive) | 3.92 µM (inactive) | 3.08 µM (inactive) | 3.17 µM (inactive) | 6.56 µM (inactive) | 2.97 µM (inactive) | 1.84 µM (inactive) | 4.16 µM (inactive) | 3.65 µM (inactive) | 1.63 µM (inactive) | 2.76 µM (inactive)
5 | CN1CCN([C@H]2C[C@H]3[C@@H]4CC=C5C[C@@H](O)CC[C@]5(C)[C@H]4CC[C@]3(C)[C@H]2O)CC1 | > 43.2 µM (inactive) | > 48.3 µM (inactive) | 16.9 µM (inactive) | 27.4 µM (inactive) | > 100 µM (inactive) | > 100 µM (inactive) | > 100 µM (inactive) | > 49 µM (inactive) | 30.7 µM (inactive) | > 100 µM (inactive) | > 100 µM (inactive) | > 100 µM (inactive) | > 100 µM (inactive) | > 47.5 µM (inactive) | > 41.1 µM (inactive) | 49.7 µM (inactive) | 44.2 µM (inactive) | > 78.3 µM (inactive) | 23.9 µM (inactive) | 16.9 µM (inactive)
6 | OC1C[C@H](c2ccccc2)C2(C(O)c3ccccc3C2O)[C@@H](c2ccccc2)C1 (stereo not given in full) | > 100 µM (inactive) | > 100 µM (inactive) | > 100 µM (inactive) | > 100 µM (inactive) | > 100 µM (inactive) | 32.4 µM (inactive) | > 100 µM (inactive) | 32.2 µM (inactive) | > 100 µM (inactive) | > 100 µM (inactive) | > 100 µM (inactive) | > 100 µM (inactive) | 57.4 µM (inactive) | > 100 µM (inactive) | > 100 µM (inactive) | > 100 µM (inactive) | > 100 µM (inactive) | > 100 µM (inactive) | 83.2 µM (inactive) | > 100 µM (inactive)
7 | COc1ccc2c(c1)C(OC)C1c3c(cc4c(c3-2)OCO4)CCN1C (stereo not given) | 2 µM (inactive) | 2.44 µM (inactive) | 2.06 µM (inactive) | 3.88 µM (inactive) | 2.39 µM (inactive) | 1.56 µM (inactive) | 5.41 µM (inactive) | 3.38 µM (inactive) | 2.1 µM (inactive) | 2.92 µM (inactive) | 1.67 µM (inactive) | 4.34 µM (inactive) | 0.925 µM (active) | 3.13 µM (inactive) | 2.32 µM (inactive) | 1.95 µM (inactive) | 3.4 µM (inactive) | 2.38 µM (inactive) | 3.46 µM (inactive) | 3.34 µM (inactive)
8 | COc1ccc2c3c1OC1C(OC)(OC)C=C[C@@]4(Br)[C@@H](C2)N(CC2CC2)CC[C@]314 (stereo not given in full) | 37.1 µM (inactive) | 45.6 µM (inactive) | 76.4 µM (inactive) | > 100 µM (inactive) | 58.5 µM (inactive) | 21 µM (inactive) | > 100 µM (inactive) | 69.8 µM (inactive) | 44 µM (inactive) | 95.7 µM (inactive) | 35.2 µM (inactive) | > 100 µM (inactive) | 23.8 µM (inactive) | > 100 µM (inactive) | 43.7 µM (inactive) | 80.7 µM (inactive) | > 100 µM (inactive) | > 100 µM (inactive) | > 100 µM (inactive) | 61.2 µM (inactive)
9 | c1cc(Sc2nc(Sc3ccncc3)nc(Sc3ccncc3)n2)ccn1 | > 100 µM (inactive) | > 100 µM (inactive) | > 100 µM (inactive) | > 100 µM (inactive) | > 100 µM (inactive) | > 100 µM (inactive) | > 100 µM (inactive) | > 100 µM (inactive) | > 100 µM (inactive) | > 100 µM (inactive) | > 100 µM (inactive) | > 100 µM (inactive) | > 100 µM (inactive) | > 100 µM (inactive) | > 100 µM (inactive) | > 100 µM (inactive) | > 100 µM (inactive) | > 100 µM (inactive) | > 100 µM (inactive) | > 100 µM (inactive)
10 | O=C1N(CN2CCOCC2)CN(CN2CCOCC2)C(=O)N1Cc1ccccc1 | 15.2 µM (inactive) | 26.2 µM (inactive) | 17.7 µM (inactive) | 19.3 µM (inactive) | 37.1 µM (inactive) | 13.3 µM (inactive) | 24.9 µM (inactive) | 21.7 µM (inactive) | 22.8 µM (inactive) | 40.4 µM (inactive) | 28.1 µM (inactive) | 38.5 µM (inactive) | 25.8 µM (inactive) | > 100 µM (inactive) | 42.7 µM (inactive) | 20.1 µM (inactive) | 30.9 µM (inactive) | > 100 µM (inactive) | 26.5 µM (inactive) | 20 µM (inactive)
11 | CCOC(=O)c1c(N2CCOCC2)[nH]c(=O)c(C(c2c(Cl)cccc2Cl)c2c(O)c(C(=O)OCC)c(N3CCOCC3)[nH]c2=O)c1O | 2.49 µM (inactive) | 12.3 µM (inactive) | 2.19 µM (inactive) | 1.93 µM (inactive) | 13.8 µM (inactive) | 1.83 µM (inactive) | 12.2 µM (inactive) | 5.58 µM (inactive) | 4.39 µM (inactive) | 18.2 µM (inactive) | 2.47 µM (inactive) | 18.9 µM (inactive) | 2.09 µM (inactive) | 14.4 µM (inactive) | 9.84 µM (inactive) | 2.07 µM (inactive) | 19.4 µM (inactive) | 16 µM (inactive) | 2.18 µM (inactive) | 3.48 µM (inactive)
12 | CCCC(=O)Nc1cc(C(=O)N2C[C@H]3C[C@@]34C2=CC(=O)c2[nH]cc(C)c24)n(COC)c1 | 0.105 µM (active) | 0.281 µM (active) | 0.164 µM (active) | 0.208 µM (active) | 0.475 µM (active) | 0.0553 µM (active) | 0.116 µM (active) | 0.171 µM (active) | 0.182 µM (active) | 1.51 µM (inactive) | 0.843 µM (active) | 0.843 µM (active) | 0.245 µM (active) | 1.16 µM (inactive) | 0.783 µM (active) | 0.00879 µM (active) | 0.122 µM (active) | 0.735 µM (active) | 0.71 µM (active) | 0.19 µM (active)
13 | C=C(Cl)C(Cl)(CBr)CCC(Cl)C(C)C (stereo not given) | 8.28 µM (inactive) | 3.95 µM (inactive) | 6.3 µM (inactive) | 1.87 µM (inactive) | 30 µM (inactive) | 5.93 µM (inactive) | 1.37 µM (inactive) | 1.37 µM (inactive) | 1.37 µM (inactive) | 8.53 µM (inactive) | 2.94 µM (inactive) | 14.7 µM (inactive) | 1.6 µM (inactive) | 10.8 µM (inactive) | 8.17 µM (inactive) | > 39.9 µM (inactive) | 4.22 µM (inactive) | 2.22 µM (inactive) | 0.138 µM (active) | 6.98 µM (inactive)
